Reference: US12054562B2, “Cell-permeable inhibitory agent and methods of use thereof in treatment of cognitive and mood disorders” (priority 2015, dated 2024)

Experiments:
[1] = molecular target: T1, α2 subunit containing GABAA receptors (Mus musculus, UniProt P26048); experiment: Co-IP and WB, gephyrin and α2 subunit containing GABAA receptors; assay type: binding; conditions: immunoprecipitates from Example 1, hippocampal tissue
T1 construct: α1 and α2 subunit containing GABAA receptors in the hippocampal tissue; from tissue; host or cells: hippocampus of adult mice
T1 sequence (P26048 29-451): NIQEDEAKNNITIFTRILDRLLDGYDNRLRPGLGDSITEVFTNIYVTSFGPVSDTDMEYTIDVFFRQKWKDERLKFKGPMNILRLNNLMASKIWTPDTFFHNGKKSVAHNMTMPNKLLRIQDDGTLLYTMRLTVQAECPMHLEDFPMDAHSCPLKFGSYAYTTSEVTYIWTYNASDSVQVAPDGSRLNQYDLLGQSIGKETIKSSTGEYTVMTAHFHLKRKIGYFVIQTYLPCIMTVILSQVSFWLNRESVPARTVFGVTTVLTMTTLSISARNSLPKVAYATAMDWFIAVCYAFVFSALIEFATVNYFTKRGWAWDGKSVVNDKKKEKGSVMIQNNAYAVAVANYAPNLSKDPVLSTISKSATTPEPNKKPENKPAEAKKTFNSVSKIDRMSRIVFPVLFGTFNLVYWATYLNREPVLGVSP

[2] = system: GABAA receptor-mediated tonic current in hippocampal neurons; experiment: Whole-cell voltage-clamp recordings of tonic current in astrocyte-neuron co-cultures; assay type: cell-based, mouse; conditions: co-treatment with etomidate 1 μM; recordings 24 h later
α5GABAA receptors = experiment: Surface biotinylation assay of α5 subunit in ex vivo brain slices after i.p. peptide; design: species or system mouse; conditions: peptide 20 mg/kg, etomidate-treated adult male mice
Description: We next asked whether injection of inhibitory peptide, when administered to mice in vivo by I.P. injection, reduced the level of α5GABAA receptors expressed in the hippocampus. To test whether the peptide reduces α5GABAA receptor cell-surface expression in vivo, we took advantage of a mouse model that we developed recently (Zurek, et al., 2014), in which up-regulation of α5GABAA receptor cell surface expression causes memory deficits. Adult mice (22-25 g) were treated with etomidate (8 mg/kg, i.p.), and sacrificed 24 hrs later according to a protocol approved by the Animal Care Committee of the University of Toronto. The hippocampi were collected and subject to experiments. We first measured the level of radixin phosphorylation, because radixin phosphorylation is required for the recruitment of α5GABAA receptors to extrasynaptic sites of the neurons (Loebrich et al., 2006; Hausrat et al., 2015). The antibody against threonine at 564 of radixin, which is specific for radixin phosphorylation involving α5GABAA receptor extra-synaptic trafficking, was used for these studies (Choii et al., 2015; Hausrat et al., 2015). […] We next examined whether the inhibitory peptide prevented α5GABAA receptor from trafficking to surface membrane in vivo by studying ex vivo brain slices. […]

[3] = system: etomidate-induced memory deficits in mice; experiment: Novel object recognition task, treatment paradigm; assay type: in vivo, mouse; conditions: peptide given the day after etomidate, 4 hrs before behavioral testing
Description: In the present study, mice were handled two times a day, 5 min each before start of behavioral experiments. Object recognition was assessed in a circle opaque chamber with the diameter of 38.5 cm in a regular lit room. Each mouse was habituated to the chamber for 5 min since day 3. During the training phase, the mouse was allowed to explore two identical objects for 5 min. The mouse was then returned to its home cage for a retention period of 1 h. The mouse was reintroduced to the training context and presented with one familiar object and one novel object for 5 min. Movement and interaction with the objects was recorded with a video camera that was mounted above the chamber. The exploratory behavior and mouse activity was analyzed blindly by a person with a good training and the software EthoVision, XT v11.5 provided by the Noldus Information Tech Inc., (Leesburg VA, USA). Exploratory behavior was defined as sniffing, licking, or touching the object while facing the object. Memory was assessed by measuring the novelty preference ratio (i.e., the ratio of time spent exploring the novel object to the time spent exploring both objects). […] Total interaction time with both objects was compared between groups to determine whether the treatments affected locomotor activity or exploration during the testing phase. […]

How did the “effects on α2 subunit containing GABAA receptors (gephyrin interaction)” value [1] turn out when NYFTKRGWAWDGKKAL [inhibitory peptide] was run?
The value was “did not have any effects”.

What about the “etomidate-induced increase in tonic current” value [2] of the same sequence?
The value was “reversed”.

And the “expression of α5GABAA receptors on the cell surface” value (α5GABAA receptors)?
The value was “selectively prevented”.

What about the “α5GABAA total protein production” value (α5GABAA receptors) of the same sequence?
Its value is “did not change”.

What about the “memory deficits in etomidate-treated mice (NOR, treatment)” value [3] of the same sequence?
Its value is “reversed”.
